Like-named read-outs stand apart in the source and are kept apart here.

We go through three compounds from patent US20110015264A1 (priority 2006, published 2011).

One data set deals with influenza. The settings on record: human, in vivo, po; cited from earlier work.
For another data set, the target named is N9 neuraminidase (Influenza A virus, UniProt P03472). Format: binding, A/H1N9 (NWS/G70) avian virus.
The next data set deals with H1N1 neuraminidase (UniProt P03470). The settings on record: read-out: IC50 against H1N1; Bantia et al. 2001; cited from earlier work.
H1N1 neuraminidase, sequence (P03470 whole entry, looked up): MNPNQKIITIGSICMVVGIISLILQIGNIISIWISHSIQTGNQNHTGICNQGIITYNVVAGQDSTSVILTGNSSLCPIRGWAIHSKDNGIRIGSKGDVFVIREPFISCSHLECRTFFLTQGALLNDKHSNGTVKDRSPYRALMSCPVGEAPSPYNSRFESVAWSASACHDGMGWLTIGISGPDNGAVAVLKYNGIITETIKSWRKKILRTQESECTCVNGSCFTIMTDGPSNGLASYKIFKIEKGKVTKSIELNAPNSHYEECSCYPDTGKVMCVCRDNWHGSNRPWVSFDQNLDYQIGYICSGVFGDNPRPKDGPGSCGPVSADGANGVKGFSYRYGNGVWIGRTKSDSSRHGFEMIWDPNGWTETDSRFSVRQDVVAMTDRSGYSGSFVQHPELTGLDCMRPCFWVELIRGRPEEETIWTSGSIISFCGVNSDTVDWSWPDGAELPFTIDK
Data set [1] deals with A/NWS/33 (H1N1) influenza virus. Particulars: mouse, in vivo.
For data set [2], the system named is A/Victoria/3/75 (H3N2) influenza virus. More on the design: species or system BALB/c mice. Particulars: mouse, in vivo.
Data set [3] has as its target neuraminidase enzyme N9 from H1N9 virus (Influenza A virus, UniProt P03472). Description: biochemical. Also on record: species or system A/H1N9 (NWS/G70) avian virus. Particulars: for IC90: read-out: IC90 against N9 enzyme.
In another data set the test system is influenza virus. Also on record: species or system BALB/c mice. The settings on record: mouse, in vivo.

neuraminidase enzyme N9 from H1N9 virus, sequence (P03472 whole entry, looked up): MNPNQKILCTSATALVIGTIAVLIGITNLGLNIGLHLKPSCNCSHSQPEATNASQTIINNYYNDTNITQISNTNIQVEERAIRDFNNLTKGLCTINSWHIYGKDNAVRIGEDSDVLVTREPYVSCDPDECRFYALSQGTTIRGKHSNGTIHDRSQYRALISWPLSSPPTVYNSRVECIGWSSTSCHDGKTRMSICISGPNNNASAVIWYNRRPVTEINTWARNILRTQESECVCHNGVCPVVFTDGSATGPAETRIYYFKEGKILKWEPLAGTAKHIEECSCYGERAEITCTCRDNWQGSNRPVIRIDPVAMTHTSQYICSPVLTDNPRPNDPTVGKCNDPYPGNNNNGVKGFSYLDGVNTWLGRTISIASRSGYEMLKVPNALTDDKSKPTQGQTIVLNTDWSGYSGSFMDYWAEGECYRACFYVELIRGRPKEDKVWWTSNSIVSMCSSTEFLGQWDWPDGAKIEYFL
N9 neuraminidase, sequence (P03472 whole entry, looked up): as above

Turning to `CCC(CC)C(NC(C)=O)[C@@H]1[C@H](O)[C@@H](C(=O)O)C[C@H]1NC(=N)N` (stereo partly drawn) [peramivir, (1S,2S,3R,4R)-3-(1-Acetamido-2-ethylbutyl)-4-guanidino-2-hydroxycyclopentane-carboxylic acid], the “inhibitory effect on influenza in humans” value in the data set with influenza was “undesirably low inhibitory effect”. In addition, the “t1/2 of dissociation from N9 neuraminidase” value on N9 neuraminidase is given as over 24 h. On H1N1 neuraminidase, the IC50 (usually the concentration at which inhibition is half-maximal) was 0.11 nM. Further, in data set [1], the “prevention of weight loss in infected mice” value was “effective in preventing weight loss”, the survival worked out at 40% and the survival rate came to 50%. Besides, in data set [1] (1 mg/kg), the “effectiveness in terms of survival” value is “not effective” and the “mean days to death” value is listed as “significant increase”. Moreover, in data set [1] (10 mg/kg), the “weight loss and mortality” value is “significantly reduced”; the “weight loss by day 5” value is on record as “no weight loss”; the “weight loss, % of initial weight” value was “about 1.7 % of initial weight”. Moreover, the “signs of drug-related toxicity” value in data set [1] (20 mg/kg) is “No signs of drug-related toxicity”. This compound also returned a survival in data set [1] (po, 1 mg/kg/day) of 60%. In addition, the “weight loss by day 5” value in data set [1] (po, 10 mg/kg) was 0.22 g. In addition, the protection against lethality entry in data set [1] (po, 10 mg/kg/day) is recorded as “Complete protection against lethality”. Also, in data set [2], the “mean weight loss by day 8” value came out at 4.5 g; the “mean weight loss by day 8, % of weight” value came out at 25%; the “survived (protection against lethality)” value is 9/10. Besides, in data set [3], the concentration for half-maximal inhibition (IC50) is 1.3 ± 0.4 nM and the concentration for an effect of 90% (IC90) – broadly, the concentration at which the effect reaches the 90% level – amounted to 5 nM. Further, in the data set with influenza virus, the “effectiveness of delayed treatment” value is “highly effective”, the protection against lethality entry is given as “complete protection against lethality” and the “weight loss by day 5” value is “no significant weight loss”. Moreover, the “weight loss by day 5” value in the data set with influenza virus (po) is “no significant weight loss”.

With `CCOC(=O)C1=C[C@@H](OC(CC)CC)[C@H](NC(C)=O)[C@@H](N)C1` [oseltamivir, reference compound], the survival rate in data set [1] is given as 10%. Also, in data set [1] (10 mg/kg), the mice survived is on record as 3 out of 10; the “protection against lethality” value was 30%; the weight loss entry was “about 4 g”; the “weight loss and mortality” value was “no efficacy”. In addition, in data set [1] (10 mg/kg), the “weight loss, % of initial weight” value is 25 % of initial weight. In data set [1] (po, 2 mg/kg/day), the “greatest mean weight loss at day 8” value came out at 1.34 g. The “greatest mean weight loss at day 8” value in data set [1] (po, 10 mg/kg/day) is 0 g. Further, in data set [2] (po), the “mean weight loss by day 8” value is listed as “about 5.1 g”; the “mean weight loss by day 8, % of weight” value is 28%; the “survived (protection against lethality)” value is recorded as 9/10.

On to `CC(=O)N[C@H]1[C@H]([C@H](O)[C@H](O)CO)OC(C(=O)O)=C[C@@H]1N=C(N)N` [zanamivir, reference compound], for which the “t1/2 of dissociation from N9 neuraminidase” value at N9 neuraminidase is reported as 1.25 h. Further, the IC90 in data set [3] stood at 10 nM.
